Literature values as cited in PMC2891520 (The Journal of neuroscience : the official journal of the …, 2010).

Biological target: CaMKII (Homo sapiens, UniProt Q9UQM7)
Settings: ref Vest et al., 2010

## COc1ccc(S(=O)(=O)N(CCO)c2ccccc2CN(C)C/C=C/c2ccc(Cl)cc2)cc1 [KN93]
  block of autonomous CaMKII activity once generated: does not block autonomous activity once it is generated
